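1) Cells in 96-well plates. 2) Compound, 48 h, 5 concentrations. 3) Linear interpolation between surrounding doses. 4) Unreached endpoint = highest concentration. GI50 marks 50% less growth. TGI denotes the concentration required for complete inhibition of growth.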

Among the test systems are TK-10 renal; SW-620 colon; NCI-H23 lung; LOX IMVI melanoma; HCC-2998 colon; SK-MEL-5 melanoma; HOP-92 NSCLC; PC-3 prostate; IGROV1 ovarian; CAKI-1 renal.
Holding throughout (assay): NCI-60 cell line screen, 48 h

Regarding `COc1ccc(C(=S)N2CCN(c3cccc(Cl)c3)CC2)cc1`, the GI50 was over 100 µM with TK-10 renal; over 100 µM with SW-620 colon; over 100 µM in the assay with NCI-H23 lung; over 100 µM in the assay on LOX IMVI melanoma; over 100 µM in the assay with HCC-2998 colon; 84.2 µM in the assay on SK-MEL-5 melanoma. For the same compound, the GI50 in the assay on HOP-92 NSCLC was 17.2 µM; with PC-3 prostate it was 38.6 µM; with IGROV1 ovarian, 58.8 µM; in the assay on CAKI-1 renal, over 100 µM. Further, the TGI in the assay with TK-10 renal, in the assay with SW-620 colon, with NCI-H23 lung, with LOX IMVI melanoma, in the assay on HCC-2998 colon and in the assay on SK-MEL-5 melanoma was over 100 µM throughout. Moreover, the TGI in the assay on HOP-92 NSCLC, in the assay on PC-3 prostate, in the assay on IGROV1 ovarian and with CAKI-1 renal was over 100 µM throughout.

For the compound `Nc1n[nH]c2ccc([C@@H]3Nc4ccc5[nH]ncc5c4[C@H]4[C@H]5CCC(C5)[C@H]43)cc12`, the GI50 in the assay with TK-10 renal was 8.25 µM; in the assay with SW-620 colon, 0.372 µM; with NCI-H23 lung, 0.654 µM; in the assay with LOX IMVI melanoma, 0.7 µM; in the assay on HCC-2998 colon, 0.381 µM; with SK-MEL-5 melanoma, 0.403 µM. Also, the GI50 with HOP-92 NSCLC was 1.45 µM; with PC-3 prostate it was 0.397 µM; in the assay on IGROV1 ovarian, 0.513 µM; with CAKI-1 renal, 0.436 µM. Further, the TGI with TK-10 renal was over 79.5 µM; with SW-620 colon, over 100 µM; in the assay with NCI-H23 lung, over 46 µM; with LOX IMVI melanoma, 14.5 µM; in the assay with HCC-2998 colon it was 11.6 µM; with SK-MEL-5 melanoma, 2.6 µM. Also, the TGI in the assay with HOP-92 NSCLC is 14.9 µM; in the assay on PC-3 prostate, 23 µM; in the assay on IGROV1 ovarian it was over 51.6 µM; with CAKI-1 renal it was 24.7 µM.

Regarding `CC(=O)c1ccc(Nc2cc(-c3ccccc3)nc3c(O)cccc23)cc1`, the GI50 in the assay with TK-10 renal is 18.1 µM; in the assay with SW-620 colon it was 7.06 µM; in the assay with NCI-H23 lung, 12.5 µM; with LOX IMVI melanoma it was 14.5 µM; in the assay on HCC-2998 colon, 13.7 µM; in the assay on SK-MEL-5 melanoma it was 13 µM. Also, the GI50 is 13.7 µM in the assay on HOP-92 NSCLC, 8.62 µM with PC-3 prostate, 2.57 µM in the assay on IGROV1 ovarian and 41.3 µM with CAKI-1 renal. For the same compound, the TGI was 84.8 µM in the assay with TK-10 renal; over 100 µM with SW-620 colon; 64.7 µM with NCI-H23 lung; over 100 µM in the assay with LOX IMVI melanoma; 36.7 µM in the assay on HCC-2998 colon; 26.7 µM in the assay on SK-MEL-5 melanoma. The TGI in the assay on HOP-92 NSCLC was 50.5 µM; with PC-3 prostate, over 100 µM; with IGROV1 ovarian, 13.4 µM; in the assay with CAKI-1 renal, over 100 µM.

Regarding `O=C(Nc1nc2ccccc2s1)OCC(F)(F)F`, the GI50 in the assay on TK-10 renal, with SW-620 colon, in the assay on NCI-H23 lung, in the assay with LOX IMVI melanoma, with HCC-2998 colon and with SK-MEL-5 melanoma was over 100 µM in each case. For the same compound, the GI50 with HOP-92 NSCLC is 41.2 µM; in the assay with PC-3 prostate it was over 100 µM; in the assay on IGROV1 ovarian, over 100 µM; with CAKI-1 renal it was over 100 µM. Besides, the TGI in the assay on TK-10 renal, in the assay with SW-620 colon, with NCI-H23 lung, in the assay on LOX IMVI melanoma, in the assay on HCC-2998 colon and with SK-MEL-5 melanoma was over 100 µM each time. In addition, the TGI in the assay on HOP-92 NSCLC, in the assay with PC-3 prostate, in the assay on IGROV1 ovarian and with CAKI-1 renal was over 100 µM each time.

As for `COC(=O)C1OC(O[C@H]2CCC3(C)C(CCC4(C)C3CC=C3C5CC(C)(C)CCC5(C(=O)O)CC[C@]34C)C2(C)C)C(O)C(OC2OC(CO)C(O)C(O)C2O)C1O` (stereo not given in full), the GI50 with TK-10 renal is 7.22 µM; in the assay on SW-620 colon, 7.28 µM; in the assay with NCI-H23 lung it was 6.46 µM; with LOX IMVI melanoma, 6.27 µM; in the assay with HCC-2998 colon, 7.14 µM; in the assay on SK-MEL-5 melanoma, 6.14 µM. Moreover, the GI50 was 7.12 µM in the assay with HOP-92 NSCLC, 6.43 µM with PC-3 prostate, 20.1 µM in the assay with IGROV1 ovarian and 12.2 µM with CAKI-1 renal. Also, the TGI in the assay on TK-10 renal is 14.2 µM; in the assay on SW-620 colon, 16.7 µM; in the assay on NCI-H23 lung it was 11.9 µM; in the assay on LOX IMVI melanoma, 11.7 µM; in the assay with HCC-2998 colon, 12.4 µM; with SK-MEL-5 melanoma, 11.4 µM. In addition, the TGI in the assay with HOP-92 NSCLC was 14.5 µM; with PC-3 prostate it was 11.8 µM; in the assay with IGROV1 ovarian, over 33.3 µM; with CAKI-1 renal, over 33.3 µM.

On to `CC(C)(C)OC(=O)NC(Cc1ccccc1)C(=O)OCN1C(=O)C2C3C=CC(C2C1=O)C1C2C(=O)N(COC(=O)C(Cc4ccccc4)NC(=O)OC(C)(C)C)C(=O)C2C31` (stereo not given), for which the TGI is over 91.2 µM in the assay on TK-10 renal; over 100 µM in the assay on SW-620 colon; over 100 µM in the assay on NCI-H23 lung; over 100 µM in the assay on LOX IMVI melanoma; over 100 µM with HCC-2998 colon; over 74.8 µM with SK-MEL-5 melanoma. The TGI is over 100 µM in the assay with HOP-92 NSCLC, over 100 µM with PC-3 prostate, 97.4 µM in the assay with IGROV1 ovarian and over 100 µM with CAKI-1 renal.

On to `COc1cc2ncn(-c3cc(OCc4ccccc4Cl)c(C(N)=O)s3)c2cc1OC`, for which the GI50 is 3.04 µM with TK-10 renal; 0.102 µM with SW-620 colon; 0.202 µM with NCI-H23 lung; 0.169 µM in the assay with LOX IMVI melanoma; 0.488 µM in the assay with HCC-2998 colon; 0.0993 µM in the assay with SK-MEL-5 melanoma. Besides, the GI50 in the assay with HOP-92 NSCLC is 3.8 µM; in the assay with PC-3 prostate, 1 µM; with IGROV1 ovarian it was 0.552 µM; with CAKI-1 renal, 3.02 µM. Moreover, the TGI in the assay on TK-10 renal was over 22 µM; with SW-620 colon, over 18.1 µM; in the assay with NCI-H23 lung, 4.68 µM; in the assay on LOX IMVI melanoma, over 25 µM; in the assay on HCC-2998 colon, over 25 µM; with SK-MEL-5 melanoma, 3.13 µM. Moreover, the TGI in the assay with HOP-92 NSCLC, in the assay with PC-3 prostate, in the assay on IGROV1 ovarian and in the assay with CAKI-1 renal was over 25 µM in each case.

On to `C=C1CCC2C(/C=C(\C)CCC1O)OC(=O)C2C` (stereo not given), for which the GI50 in the assay on TK-10 renal, in the assay with SW-620 colon, in the assay on NCI-H23 lung, in the assay with LOX IMVI melanoma, with HCC-2998 colon and in the assay with SK-MEL-5 melanoma was over 100 µM in each case. Moreover, the GI50 in the assay on HOP-92 NSCLC, with PC-3 prostate, in the assay with IGROV1 ovarian and in the assay with CAKI-1 renal was over 100 µM in each case. Also, the TGI in the assay with TK-10 renal, in the assay on SW-620 colon, in the assay on NCI-H23 lung, with LOX IMVI melanoma, with HCC-2998 colon and with SK-MEL-5 melanoma was over 100 µM each time. Moreover, the TGI in the assay with HOP-92 NSCLC, in the assay with PC-3 prostate, with IGROV1 ovarian and in the assay on CAKI-1 renal was over 100 µM throughout.

The values are drawn from PubChem BioAssay (NCI).
